Reference: US11319303B2 (WIGEN BIOMEDICINE TECHNOLOGY (SHANGHAI) CO., LTD., priority 2017, dated 2022)
Structures can show the parent of a compound that is named as a salt.

target: LC3B (Homo sapiens, UniProt Q9GZQ8); test: Fluorescence Polarization (FP) Assay: displacement of FITC-labeled peptide from GST-LC3B; type: binding; settings: Fluorescence Polarization assay; GST-LC3B 180 nM, FITC-labeled peptide 18 nM, 25° C.; read-out: IC50
Experimental: The compounds of the present invention for regulating the autophagy-related protein LC3B were tested by Fluorescence Polarization (FP) Assay.
Fluorescence Polarization (FP) Assay Test

How did the IC50 turn out when CC(O)C(NC=C1C(=O)CC(c2ccccc2)CC1=O)C(=O)O (centres unmarked) [Compound 158, 2-(((2,6-dioxo-4-phenylcyclo-hexylidene)methyl)amino)-3-hydroxybutanoic acid] was run?
Its IC50 is 100 to 1000 µM.

Which IC50 does the source give for CC(NC=C1C(=O)CC(c2ccccc2)CC1=O)c1ccccn1 (centres unmarked) [Compound 160, 5-phenyl-2-(((1-(pyridin-2-yl)ethyl)amino)methylene) cyclohexane-1,3-dione] here?
Its IC50 is 15 to 100 µM.

Which IC50 does the source give for O=C1CC(c2ccccc2)CC(=O)C1=CNCC1CCNCC1 (centres unmarked) [Compound 161, 5-phenyl-2-(((piperidin-4-ylmethyl)amino)methylene) cyclohexane-1,3-dione hydrochloride] here?
Its IC50 is 100 to 1000 µM.

With CCOC(=O)[C@H](C)NC=C1C(=O)CC(c2ccccc2)CC1=O (stereo partly drawn) [Compound 162, ethyl ((2,6-dioxo-4-phenylcyclo-hexylidene)methyl)-L-alaninate] as the molecule, how does the IC50 read?
Its IC50 is 15 to 100 µM.

With O=C1CC(c2ccccc2)CC(=O)C1=CNC[C@@H](O)[C@H](O)[C@@H](O)[C@@H](O)CO (stereo partly drawn) [Compound 163, 2-((((2R,3S,4S,5S)-2,3,4,5,6-pentahydroxyhexyl)amino)methylene)-5-phenylcyclohexane-1,3-dione] as the molecule, how does the IC50 read?
Its IC50 is 100 to 1000 µM.

How did the IC50 turn out when CNCCNC=C1C(=O)CC(c2ccccc2)CC1=O (centres unmarked) [Compound 164, 2-(((2-(methylamino)ethyl)amino)methylene)-5-phenylcyclohexane-1,3-dione hydrochloride] was run?
Its IC50 is 3 to 15 µM.

How did the IC50 turn out when CCOC(=O)C(CS)NC=C1C(=O)CC(c2ccccc2)CC1=O (centres unmarked) [Compound 169, ethyl ((2,6-dioxo-4-phenylcyclo-hexylidene)methyl) cysteinate] was run?
The IC50 was 3 to 15 µM.

CN(C)CCCCNC=C1C(=O)CC(c2ccccc2)CC1=O (centres unmarked) [Compound 170, 2-(((4-(dimethylamino)butyl)amino)methylene)-5-phenylcyclohexane-1,3-dione] was tested. Which IC50 did it give?
The IC50 was 3 to 15 µM.

For CCN1CCC[C@H]1CNC=C1C(=O)CC(c2ccccc2)CC1=O (stereo partly drawn) [Compound 171, 2-(((((S)-1-ethylpyrrolidin-2-yl)methyl)amino)methylene)-5-phenylcyclohexane-1,3-dione], which IC50 is on record?
The IC50 was 3 to 15 µM.

How did the IC50 turn out when NC1CC(NC=C2C(=O)CC(c3ccccc3)CC2=O)C1 (centres unmarked) [Compound 173, 2-(((3-aminocyclobutyl)amino)methylene)-5-phenylcyclohexane-1,3-dione hydrochloride] was run?
Its IC50 is 15 to 100 µM.

Which IC50 does the source give for NCCNC=C1C(=O)CC(c2ccccc2)CC1=O (centres unmarked) [Compound 175, 2-(((2-aminoethyl)amino)methylene)-5-phenylcyclo-hexane-1,3-dione hydrochloride] here?
Its IC50 is 3 to 15 µM.

With CC(=O)NCCNC=C1C(=O)CC(c2ccccc2)CC1=O (centres unmarked) [Compound 176, N-(2-(((2,6-dioxo-4-phenylcyclo-hexylidene)methyl)amino)ethyl) acetamide] as the molecule, how does the IC50 read?
The IC50 was 100 to 1000 µM.

How did the IC50 turn out when NCCOC(=O)[C@H](Cc1ccccc1)NC=C1C(=O)CC(c2ccccc2)CC1=O (stereo partly drawn) [Compound 178, 2-aminoethyl ((2,6-dioxo-4-phenylcyclo-hexylidene)methyl)-L-phenylalaninate hydrochloride] was run?
Its IC50 is 15 to 100 µM.

For CONC=C1C(=O)CC(c2ccccc2)CC1=O (centres unmarked) [Compound 180, 2-((methoxyamino)methylene)-5-phenylcyclo-hexane-1,3-dione], which IC50 is on record?
Its IC50 is 100 to 1000 µM.

CC1(C)CC(=O)C(=CNCCN2CCN(CCO)CC2)C(=O)C1 [Compound 182, 2-(((2-(4-(2-hydroxyethyl)piperazin-1-yl)ethyl)amino)methylene)-5,5-dimethyl-cyclohexane-1,3-dione] was tested. Which IC50 did it give?
Its IC50 is 100 to 1000 µM.

O=C1/C(=C/NCCN2CCN(CCO)CC2)Oc2ccccc21 [Compound 183, 2-(((2-(4-(2-hydroxyethyl)piperazin-1-yl)ethyl)amino)methylene) benzofuran-3(2H)-one] was tested. Which IC50 did it give?
The IC50 was 100 to 1000 µM.

With Cc1cccc2[nH]cc(C3CC(=O)C(=CNCCN4CCN(CCO)CC4)C(=O)C3)c12 (centres unmarked) [Compound 184, 2-(((2-(4-(2-hydroxyethyl)piperazin-1-yl)ethyl)amino)methylene)-5-(4-methyl-1H-indol-3-yl)cyclohexane-1,3-dione] as the molecule, how does the IC50 read?
Its IC50 is 100 to 1000 µM.

How did the IC50 turn out when O=C1CC(c2cccc3[nH]cc(C4CC4)c23)CC(=O)C1=CNCCN1CCN(CCO)CC1 (centres unmarked) [Compound 185, 5-(3-cyclopropyl-1H-indol-4-yl)-2-(((2-(4-(2-hydroxyethyl)piperazin-1-yl)ethyl)amino)methylene) cyclohexane-1,3-dione] was run?
Its IC50 is under 3 µM.

COc1ccc2[nH]cc(C3CC(=O)C(=CNCCN4CCN(CCO)CC4)C(=O)C3)c2c1 (centres unmarked) [Compound 186, 2-(((2-(4-(2-hydroxyethyl)piperazin-1-yl)ethyl)amino)methylene)-5-(5-methoxy-1H-indol-3-yl)cyclohexane-1,3-dione] was tested. Which IC50 did it give?
The IC50 was 3 to 15 µM.

Which IC50 does the source give for O=C1CC(c2ccccc2-c2ccccc2)CC(=O)C1=CNCCN1CCN(CCO)CC1 (centres unmarked) [Compound 187, 5-([1,1′-biphenyl]-2-yl)-2-(((2-(4-(2-hydroxyethyl)piperazin-1-yl)ethyl)amino)methylene) cyclohexane-1,3-dione] here?
Its IC50 is under 3 µM.

O=C1CC(c2ccccc2-c2ccncc2)CC(=O)C1=CNCCN1CCN(CCO)CC1 (centres unmarked) [Compound 188, 2-(((2-(4-(2-hydroxyethyl)piperazin-1-yl)ethyl)amino)methylene)-5-(2-(pyridin-4-yl)phenyl) cyclohexane-1,3-dione] was tested. Which IC50 did it give?
The IC50 was 3 to 15 µM.

With O=C1CC(c2ccccc2C2CC2)CC(=O)C1=CNCCN1CCN(CCO)CC1 (centres unmarked) [Compound 189, 5-(2-cyclopropylphenyl)-2-(((2-(4-(2-hydroxyethyl)piperazin-1-yl)ethyl)amino)methylene) cyclohexane-1,3-dione] as the molecule, how does the IC50 read?
The IC50 was under 3 µM.

With O=C1CC(c2ccccc2)C(C(=O)N2CCOCC2)C(=O)C1=CNCCN1CCN(CCO)CC1 (centres unmarked) [Compound 190, 2-(((2-(4-(2-hydroxyethyl)piperazin-1-yl)ethyl)amino)methylene)-4-(morpholine-4-carbonyl)-5-phenylcyclo-hexane-1,3-dione] as the molecule, how does the IC50 read?
The IC50 was 15 to 100 µM.

How did the IC50 turn out when CCOC(=O)C1C(=O)/C(=C\NCCN2CCN(CCO)CC2)C(=O)CC1c1ccccc1Br (centres unmarked) [Compound 191, ethyl-6-(2-bromophenyl)-3-(((2-(4-(2-hydroxyethyl)piperazin-1-yl)ethyl)amino)methylene)-2,4-dioxocyclohexane-1-carboxylate] was run?
Its IC50 is under 3 µM.

With O=C1Nc2ccc(Cl)cc2C(=O)/C1=C/NCCN1CCN(CCO)CC1 [Compound 192, 6-chloro-3-(((2-(4-(2-hydroxyethyl)piperazin-1-yl)ethyl)amino)methylene) quinoline-2,4 (1H,3H)-dione] as the molecule, how does the IC50 read?
Its IC50 is 3 to 15 µM.

Which IC50 does the source give for CN1C(=O)/C(=C\NCCN2CCN(CCO)CC2)C(=O)c2ccccc21 [Compound 193, 3-(((2-(4-(2-hydroxyethyl)piperazin-1-yl)ethyl)amino)methylene)-1-methylquinoline-2,4(1H,3H)-dione] here?
The IC50 was 15 to 100 µM.

For COc1cccc2c1NC(=O)/C(=C\NCCN1CCN(CCO)CC1)C2=O [Compound 194, 3-(((2-(4-(2-hydroxyethyl)piperazin-1-yl)ethyl)amino)methylene)-8-methoxyquinoline-2,4(1H,3H)-dione], which IC50 is on record?
Its IC50 is 15 to 100 µM.

Which IC50 does the source give for O=C1Nc2c(F)cccc2C(=O)/C1=C/NCCN1CCN(CCO)CC1 [Compound 195, 8-fluoro-3-(((2-(4-(2-hydroxyethyl)piperazin-1-yl)ethyl)amino)methylene) quinoline-2,4 (1H,3H)-dione] here?
The IC50 was 3 to 15 µM.

COc1ccc2c(c1)C(=O)/C(=C/NCCN1CCN(CCO)CC1)C(=O)N2 [Compound 196, 3-(((2-(4-(2-hydroxyethyl)piperazin-1-yl)ethyl)amino)methylene)-6-methoxyquinoline-2,4(1H,3H)-dione] was tested. Which IC50 did it give?
The IC50 was 3 to 15 µM.

Which IC50 does the source give for O=C1Nc2c(cccc2C(F)(F)F)C(=O)/C1=C/NCCN1CCN(CCO)CC1 [Compound 197, 3-(((2-(4-(2-hydroxyethyl)piperazin-1-yl)ethyl)amino)methylene)-8-(trifluoromethyl) quinoline-2,4(1H,3H)-dione] here?
Its IC50 is under 3 µM.

With O=C1NC(=O)/C(=C\NCCN2CCN(CCO)CC2)S1 [Compound 200, 5-(((2-(4-(2-hydroxyethyl)piperazin-1-yl)ethyl)amino)methylene)thiazolidine-2,4-dione] as the molecule, how does the IC50 read?
Its IC50 is 100 to 1000 µM.

For CN(C)C=C1C(=O)C(C)(c2ccccc2)C1=O (centres unmarked) [Compound 201, 4-((dimethylamino)methylene)-2-methyl-2-phenylcyclobutane-1,3-dione], which IC50 is on record?
The IC50 was 100 to 1000 µM.

Which IC50 does the source give for CN(C)CCCNC=C1C(=O)CC(c2ccccc2)CC1=O (centres unmarked) [Compound 202, 2-(((3-(dimethylamino)propyl)amino)methylene)-5-phenylcyclohexane-1,3-dione] here?
Its IC50 is 15 to 100 µM.

Cc1cccc(CNC=C2C(=O)CC(c3ccccc3)CC2=O)n1 (centres unmarked) [Compound 203, 2-((((6-methylpyridin-2-yl)methyl)amino)methylene)-5-phenylcyclohexane-1,3-dione] was tested. Which IC50 did it give?
The IC50 was 3 to 15 µM.

For O=C1CC(c2ccccc2)CC(=O)C1=CNCc1ccc(Cl)cn1 (centres unmarked) [Compound 204, 2-((((5-chloropyridin-2-yl)methyl)amino)methylene)-5-phenylcyclohexane-1,3-dione], which IC50 is on record?
The IC50 was 100 to 1000 µM.

With O=C1CC(c2ccccc2)CC(=O)C1=CNCc1cc2ccccc2[nH]1 (centres unmarked) [Compound 205, 2-((((1H-indol-2-yl)methyl)amino)methylene)-5-phenylcyclohexane-1,3-dione] as the molecule, how does the IC50 read?
The IC50 was 100 to 1000 µM.

With CSCCNC=C1C(=O)CC(c2ccccc2)CC1=O (centres unmarked) [Compound 206, 2-(((2-(methylthio)ethyl)amino)methylene)-5-phenylcyclohexane-1,3-dione] as the molecule, how does the IC50 read?
The IC50 was 15 to 100 µM.

With C[S+]([O-])CCNC=C1C(=O)CC(c2ccccc2)CC1=O (centres unmarked) [Compound 207, 2-(((2-(methylsulfinyl)ethyl)amino)methylene)-5-phenylcyclohexane-1,3-dione] as the molecule, how does the IC50 read?
Its IC50 is 15 to 100 µM.

How did the IC50 turn out when CS(=O)(=O)CCNC=C1C(=O)CC(c2ccccc2)CC1=O (centres unmarked) [Compound 208, 2-(((2-(methylsulfonyl)ethyl)amino)methylene)-5-phenylcyclohexane-1,3-dione] was run?
Its IC50 is 15 to 100 µM.

CN(C)CCNC=C1C(=O)CC(c2ccccc2)C(F)C1=O (centres unmarked) [Compound 209, 2-(((2-(dimethylamino)ethyl)amino)methylene)-4-fluoro-5-phenylcyclohexane-1,3-dione] was tested. Which IC50 did it give?
Its IC50 is under 3 µM.

Which IC50 does the source give for O=C(O)CNC(=O)CNC=C1C(=O)CC(c2ccccc2)CC1=O (centres unmarked) [Compound 210, ((2,6-dioxo-4-phenylcyclo-hexylidene)methyl) glycylglycine] here?
Its IC50 is 15 to 100 µM.
